Read-outs that look alike come from different tables or passages of the source.
Tested on: HIG-82 synovial cells
Description: After having made these measurements at various times following insertion of the test composition into the simulated joint, the effect on MMP production by synovial cells for relevant blocker concentrations and times of exposure was measured employing a confluent layer of HIG-82 synovial cells in serumless Neuman-Tytell growth medium, which is a model system commonly used by those skilled in the art to represent human synovial tissue for the purpose of studying the proinflammatory effects of IL-1 and the antagonization thereon produced by agents of interest, for example, calcium-channel blockers.
The MMP levels in the medium conditioned by the cells were measured using the assay described in Kolomytkin, O. V., Marino, A. A., Waddell, D. D., Mathis, J. M., Wolf, R. E., Sadasivan, K. K. and Albright, J. A. IL-1β-induced Production of Metalloproteinases by Synovial Cells Depends on Gap-junction Conductance.

## COc1ccc(CCN(C)CCCC(C#N)(c2ccc(OC)c(OC)c2)C(C)C)cc1OC (racemic) [racemic verapamil, verapamil]
0.009 mg/mL for 300 hours
  reduction of MMP activity: about 21%
0.05 mg/mL for 32 hours
  reduction of MMP production/activity: 59%
0.05 mg/mL for 34 hours
  reduction of MMP production/activity: 61%
0.05 mg/mL for 62 hours
  reduction in MMP activity: 87%
Synovial cell, 45 h, read-out: maximum MMP inhibition
  inhibition at 50 µg/mL: ~81%
Synovial cell, 300 h, read-out: MMP inhibition
  inhibition at 31 µg/mL: ~61%
Synovial cell, 300 h, read-out: maximum MMP inhibition
  inhibition at 19 µg/mL: 37%
Synovial cell, read-out: MMP inhibition
  inhibition at 50 µg/mL: 81%
Conditions of 2 mg in saline composition: average 0.006 mg/mL, about 35 hours
  reduction of MMP production: 13%
Exposure about 45 hours, further increases give no enhanced inhibition
  verapamil concentration at which MMP inhibition reaches its maximum value: about 0.05 mg/mL
Exposure time 10 hours (FIG. 3A)
  maximum MMP inhibition: 22%
Exposure time 100 hours (FIG. 3A)
  maximum MMP inhibition: 91%

From US20110196035A1, “Temporally-Controlled Treatment of Joint Disease” (priority 2010, published 2011)
